Experimental data as given in paper PMC2584942, “Phase I dose escalation study of telatinib (BAY 57-9352) in patients with advanced solid tumours” (British Journal of Cancer, 2008).
Like-named read-outs stand apart in the source and are kept apart here.

Columns and labels:
[1] = Plasma pharmacokinetics of telatinib and metabolite BAY 60-8246 (LC-MS-MS, non-compartmental); type: in vivo, human; conditions: for half-life / Tmax / Cmax / AUC(0-t) / AUC: human; for AUC(0-t): read-out: AUC0–12; for AUC: read-out: AUC0–tn
Procedure: Patients with at least one valid pharmacokinetic profile were valid for the pharmacokinetic analysis. Plasma samples were collected at predose and 0.5, 1, 2, 3, 4, 6, 8, and 12 h postdose on day 1 and day 14 of cycle 1 and were analysed for BAY 57-9352 and its demethylated metabolite M-2, BAY 60-8246, using a validated LC-MS-MS analytical method.
Plasma pharmacokinetic parameters, area under the curve from time 0–12 h after dosing (AUC0−12), area under the curve from time 0 to last data point (AUC0−tn), maximum plasma concentration (Cmax), and time to maximum plasma concentration (tmax) of telatinib and its metabolite (BAY 60-8246) as well as half-life of telatinib were calculated by non-compartmental methods using WinNonlin version 4.1.a (Pharsight Corporation). The linear-logarithmic trapezoidal rule was used for calculating AUC. Half-life was calculated by linear least squares regression after logarithmic transformation of the terminal concentrations. Pharmacokinetic parameters were analysed using descriptive statistics.

[2] = test system: tumour blood flow/tumour vessel permeability; test: DCE-MRI of tumour blood flow/tumour vessel permeability; type: in vivo, human
Procedure: The effects of telatinib treatment on the plasma concentrations of sVEGFR-2, VEGF and bFGF were determined from blood samples taken at baseline, on day 14 of cycles 1, 2, 4, 6, etc. and at the final visit. Samples were analysed using the relevant quantitative enzyme-linked immunosorbent assay (ELISA) (R&D Systems Europe, Oxford, UK) according to the manufacturer's instructions. DCE-MRI was performed at baseline, on day 2 (only cycle 1), and on day 14 of cycles 1–3 to assess tumour blood flow/tumour vessel permeability in a subgroup of patients ([Morgan et al, 2003]).
To assess the biological activity of telatinib, plasma concentration analyses for the angiogenic markers VEGF, sVEGFR-2, bFGF, PDGF and […] were performed at baseline and during the course of the study. Furthermore, DCE-MRI measurements were done at baseline, on days 2 and 14 of cycle 1 and on day 14 of cycles 2 and 3. Evaluable DCE-MRI results were available for a subgroup of patients treated at dose levels of 300 mg BID or higher.

[3] = test system: Colo-205 colon carcinoma; design: method as in printed; conditions: Colo-205 colon carcinoma model; background statement, ref not given; cited from earlier work
[4] = telatinib in plasma, day 14 cycle 1, 75 mg BID oral, 25 mg mesylate tablet, n=4, geometric mean (%CV)
[5] = telatinib in plasma, day 14 cycle 1, 150 mg BID oral, 25 mg mesylate tablet, n=6, geometric mean (%CV)
[6] = telatinib in plasma, day 14 cycle 1, 300 mg BID oral, 25 mg mesylate tablet, n=6, geometric mean (%CV)
[7] = telatinib in plasma, day 14 cycle 1, 600 mg BID oral, 150 mg mesylate tablet, n=11, geometric mean (%CV)
[8] = telatinib in plasma, day 14 cycle 1, 900 mg BID oral, 150 mg mesylate tablet, n=12, geometric mean (%CV)
[9] = telatinib in plasma, day 14 cycle 1, 1200 mg BID oral, 150 mg mesylate tablet, n=6, geometric mean (%CV)
[10] = telatinib in plasma, day 14 cycle 1, 1500 mg BID oral, 150 mg mesylate tablet, n=12, geometric mean (%CV)

Question: Which Relative bioavailability ([1]; 150 mg tablet formulation compared with 25 mg tablet formulation) does the source give for `CNC(=O)c1cc(COc2nnc(Nc3ccc(Cl)cc3)c3ccoc23)ccn1` [telatinib] here?
Answer: less when compared with the 25 mg tablet formulation

Question: What about the “Dose proportionality of geometric mean Cmax and AUC0−12” value ([1]; BID dosing, plateaued in the 900–1500 mg BID dose range) of the same molecule?
Answer: less than dose-proportional

Question: And the “Increase in geometric mean Cmax between dose levels” value ([1]; between the 300 and 600 mg BID dose level)?
Answer: two-fold

Question: What about the half-life ([1]; plasma, oral, telatinib, across dose levels, discussion statement, read-out: half-life) of the same molecule?
Answer: 396 to 654 min

Question: And the Tmax ([1]; plasma, telatinib, oral, BID dosing, read-out: median tmax)?
Answer: ≤ 3 h

Question: And the Cmax [1, 4]?
Answer: 212 ng/mL

Question: What about the AUC(0-t) [1, 4] of the same molecule?
Answer: 1390 ng·h/mL

Question: And the AUC [1, 4]?
Answer: 1380 ng·h/mL

Question: And the half-life ([1]; telatinib in plasma, day 14 cycle 1, 75 mg BID oral, 25 mg mesylate tablet, n=4, geometric mean (%CV), read-out: t1/2 (converted))?
Answer: 444 min

Question: And the Tmax ([1]; telatinib in plasma, day 14 cycle 1, 75 mg BID oral, 25 mg mesylate tablet, n=4, median (range), read-out: tmax)?
Answer: 2.1 h

Question: What about the Cmax [1, 5] of the same molecule?
Answer: 219 ng/mL

Question: What about the AUC(0-t) [1, 5] of the same molecule?
Answer: 1730 ng·h/mL

Question: What about the AUC [1, 5] of the same molecule?
Answer: 1750 ng·h/mL

Question: What about the half-life ([1]; telatinib in plasma, day 14 cycle 1, 150 mg BID oral, 25 mg mesylate tablet, n=6, geometric mean (%CV), read-out: t1/2 (converted)) of the same molecule?
Answer: 654 min

Question: What about the Tmax ([1]; telatinib in plasma, day 14 cycle 1, 150 mg BID oral, 25 mg mesylate tablet, n=6, median (range), read-out: tmax) of the same molecule?
Answer: 3 h

Question: What about the AUC(0-t) ([1]; telatinib in plasma, day 14 cycle 1, 300 mg BID oral, 25 mg mesylate tablet, n=6 (sample size reduced by 2), geometric mean (%CV)) of the same molecule?
Answer: 2860 ng·h/mL

Question: What about the half-life ([1]; telatinib in plasma, day 14 cycle 1, 300 mg BID oral, 25 mg mesylate tablet, n=6 (sample size reduced by 2), geometric mean (%CV), read-out: t1/2 (converted)) of the same molecule?
Answer: 480 min

Question: What about the Cmax [1, 6] of the same molecule?
Answer: 389 ng/mL

Question: What about the AUC [1, 6] of the same molecule?
Answer: 1920 ng·h/mL

Question: And the Tmax ([1]; telatinib in plasma, day 14 cycle 1, 300 mg BID oral, 25 mg mesylate tablet, n=6, median (range), read-out: tmax)?
Answer: 1.5 h

Question: And the Cmax [1, 7]?
Answer: 810 ng/mL

Question: What about the AUC(0-t) [1, 7] of the same molecule?
Answer: 5430 ng·h/mL

Question: What about the AUC [1, 7] of the same molecule?
Answer: 5430 ng·h/mL

Question: And the half-life ([1]; telatinib in plasma, day 14 cycle 1, 600 mg BID oral, 150 mg mesylate tablet, n=11, geometric mean (%CV), read-out: t1/2 (converted))?
Answer: 522 min

Question: What about the Tmax ([1]; telatinib in plasma, day 14 cycle 1, 600 mg BID oral, 150 mg mesylate tablet, n=11, median (range), read-out: tmax) of the same molecule?
Answer: 2.1 h

Question: And the half-life ([1]; telatinib in plasma, day 14 cycle 1, 900 mg BID oral, 150 mg mesylate tablet, n=12 (sample size reduced by 2), geometric mean (%CV), read-out: t1/2 (converted))?
Answer: 336 min

Question: And the Cmax [1, 8]?
Answer: 1280 ng/mL

Question: What about the AUC(0-t) [1, 8] of the same molecule?
Answer: 7300 ng·h/mL

Question: And the AUC [1, 8]?
Answer: 7410 ng·h/mL

Question: What about the Tmax ([1]; telatinib in plasma, day 14 cycle 1, 900 mg BID oral, 150 mg mesylate tablet, n=12, median (range), read-out: tmax) of the same molecule?
Answer: 2 h

Question: And the Cmax [1, 9]?
Answer: 1140 ng/mL

Question: What about the AUC(0-t) [1, 9] of the same molecule?
Answer: 7260 ng·h/mL

Question: What about the AUC [1, 9] of the same molecule?
Answer: 7100 ng·h/mL

Question: What about the half-life ([1]; telatinib in plasma, day 14 cycle 1, 1200 mg BID oral, 150 mg mesylate tablet, n=6, geometric mean (%CV), read-out: t1/2 (converted)) of the same molecule?
Answer: 336 min

Question: What about the Tmax ([1]; telatinib in plasma, day 14 cycle 1, 1200 mg BID oral, 150 mg mesylate tablet, n=6, median (range), read-out: tmax) of the same molecule?
Answer: 2.5 h

Question: And the Cmax [1, 10]?
Answer: 964 ng/mL

Question: What about the AUC(0-t) [1, 10] of the same molecule?
Answer: 6290 ng·h/mL

Question: And the AUC [1, 10]?
Answer: 6170 ng·h/mL

Question: And the half-life ([1]; telatinib in plasma, day 14 cycle 1, 1500 mg BID oral, 150 mg mesylate tablet, n=12, geometric mean (%CV), read-out: t1/2 (converted))?
Answer: 396 min

Question: What about the Tmax ([1]; telatinib in plasma, day 14 cycle 1, 1500 mg BID oral, 150 mg mesylate tablet, n=12, median (range), read-out: tmax) of the same molecule?
Answer: 2.5 h

Question: What about the median tmax ([1]; telatinib, oral, 75 mg BID to 1500 mg BID dose range) of the same molecule?
Answer: ≤ 3 h

Question: And the “iAUC60 for the gadolinium curve” value ([2]; DCE-MRI, dose levels of 300 mg BID or higher)?
Answer: decrease

Question: And the “telatinib AUC0−12 at which substantial decreases in the gadolinium iAUC60 ratio were observed” value ([2]; day 14 of cycle 1)?
Answer: about 4 mg h l^−1

Question: And the “total daily dose at which substantial decreases in the gadolinium iAUC60 ratio were observed” value ([2]; day 14 of cycle 1)?
Answer: ≥ 600 mg

Question: And the “tumour growth in vivo” value [3]?
Answer: potent, dose-dependent reduction in tumour growth
